From patent publication EP4789680A1, “NOVEL PACE4 INHIBITOR AND USE THEREOF IN ANTI-OSTEOARTHRITIS” (Inflamax Pharmaceuticals Limited, priority 2023, dated 2025)
Where a SMILES comes first, the peptide text is derived from it. [ ]: non-standard residue; d: D form. Phe(4-guanidino) = N=C(N)Nc1ccc(C[C@H](N)C(=O)O)cc1; Phe(4-CF3) = N[C@@H](Cc1ccc(C(F)(F)F)cc1)C(=O)O

Assays:
[1] = test system: traumatic osteoarthritis model; experiment: MMT surgery traumatic osteoarthritis model, test for preventive efficacy; type: in vivo, SD rats; conditions: compared to the OA group; intra-articular injection 3 days and 1 day before MMT surgery; 0.1 mg/kg; sacrificed day 7
Procedure: In this example, a traumatic osteoarthritis model was established by performing a medial meniscus tear (MMT) surgery to verify the preventive effect of the PACE4 inhibitory peptides on OA. In the test for preventive efficacy, the PACE4 inhibitory peptide was administered via intra-articular injection 3 days and 1 day before the modeling surgery (i.e., a total of 2 administrations). In the following examples, the dosage of PACE4 inhibitory peptide was 0.1 mg/kg animal body weight.
Specifically, in the test for preventive efficacy, 24 SD rats were divided into 3 groups (including a control group, an OA modeling group (surgery group), and an OA modeling + preventive administration group (surgery group + drug intervention)), with 8 rats per group. For the OA modeling + preventive administration group, intra-articular injections were administered 3 days and 1 day before MMT surgery. Rats in each group were sacrificed on day 7 after modeling, and joint tissues were collected. Each PACE4 inhibitory peptide was tested individually to determine the preventive effect of each PACE4 inhibitory peptide. Among them, the polypeptide Ac-R-F-K-R-NH2 (control molecule) was selected as a control example. […]

[2] = test system: traumatic osteoarthritis model; experiment: MMT surgery traumatic osteoarthritis model, test for therapeutic efficacy; type: in vivo, Sprague Dawley (SD) rats; conditions: compared to the OA group; intra-articular injection on day 3 and day 10 after MMT surgery; sacrificed day 14
Procedure: In this example, a traumatic osteoarthritis model was established by performing a medial meniscus tear (MMT) surgery to verify the therapeutic effect of the PACE4 inhibitory peptides on OA. In the test for therapeutic efficacy, the injections were administered on day 3 and day 10 after the surgical modeling (i.e., a total of 2 administrations).
Specifically, in the test for therapeutic efficacy, 24 Sprague Dawley (SD) rats were divided into 3 groups (including a control group, an OA modeling group (surgery group), and an OA modeling + therapeutic administration group (surgery group + drug intervention)), with 8 rats per group. For the OA modeling + therapeutic administration group, intra-articular injections were administered on day 3 and day 10 after MMT surgery. Rats in each group were sacrificed on day 14 after modeling, and joint tissues were collected. Each PACE4 inhibitory peptide was tested individually to determine the therapeutic effect of each PACE4 inhibitory peptide. Among them, the polypeptide Ac-R-F-K-R-NH2 (control molecule) was selected as a control example.
Cartilage tissue was collected from each group as samples. The collected cartilage tissue samples were decalcified according to conventional procedures in the art, then embedded in paraffin, and sectioned at a thickness of 7 µm. Safranin O-fast green staining was performed, and the cartilage degeneration was assessed using OARSI scoring. In addition, TRAP staining was performed to determine the subchondral bone resorption in rats before and after MMT surgery and during treatment with the PACE4 inhibitory peptide.

SMILES	OARSI score reduced, preventive test [1]	OARSI score reduced, therapeutic test [2]
CC(=O)N[C@@H](CCCNC(=N)N)C(=O)N[C@@H](Cc1ccccc1)C(=O)N[C@@H](CCCCN)C(=O)N[C@@H](CCCNC(=N)N)C(N)=O [Ac-R-F-K-R-NH2] (Ac-RFKR-NH2)	4%	10%
CC(=O)N[C@H](CCCNC(=N)N)C(=O)N[C@@H](CCCNC(=N)N)C(=O)N[C@@H](Cc1ccc(C(F)(F)F)cc1)C(=O)N[C@@H](CCCCN)C(=O)N[C@@H](CCCNC(=N)N)C(=O)N[C@@H](C(N)=O)[C@H](C)O [Ac-dR-R-F(4-CF3)-K-R-dT-NH2] (Ac-[dR]R[Phe(4-CF3)]KR[dT]-NH2)		34.6%
CC(=O)N[C@H](CCCNC(=N)N)C(=O)N[C@@H](CCCNC(=N)N)C(=O)N[C@@H](Cc1ccc(NC(=N)N)cc1)C(=O)N[C@@H](CCCCN)C(=O)N[C@@H](CCCNC(=N)N)C(=O)N[C@@H](C(N)=O)[C@H](C)O [Ac-dR-R-F(4-Guan)-K-R-dT-NH2] (Ac-[dR]R[Phe(4-guanidino)]KR[dT]-NH2)		38.5%
CC(=O)N[C@H](CCCNC(=N)N)C(=O)N[C@@H](CCCNC(=N)N)C(=O)N[C@@H](Cc1ccccc1)C(=O)N[C@@H](CCCCN)C(=O)N[C@@H](CCCNC(=N)N)C(=O)N[C@@H](C(N)=O)[C@H](C)O [Ac-dR-R-F-K-R-dT-NH2] (Ac-[dR]RFKR[dT]-NH2)		28%
